# From ChEMBL document CHEMBL5380777, “Efficacy, Mechanism, and Structure-Activity Relationship of 6-Methoxy Benzofuran Derivatives as a Useful Tool for Senile Osteoporosis” (J Med Chem, 2023)
# Activity calls are given as the source filed them. The rule behind the calls is not given here.
# What was measured:
# Mus musculus [1] = test: Anti osteoporosis in 16 months old C57 mouse assessed as fold increase in osteoclast level in femur administered at 30 mg/kg/day, IG continuously for 4 months by scRNA-seq analysis relative to control; assay type: functional; details: 2920 h
# Danio rerio = species on record: Danio rerio; test: Anti osteoporosis activity in prednisone induced wildtype 3 days post-fertilization AB zebrafish osteoporosis model assessed as increase in bone fluorescence intensity (RVB = 13620 +/- 1692); assay type: functional
# MC3T3-E1 = test: Induction of ALP activity in mouse MC3T3-E1 cells in osteogenic differentiation culture at 1 uM measured on day 7; assay type: functional, cell-based; details: time 7.0 day
# Mus musculus [2] = test: Anti osteoporosis in 16 months old C57 mouse assessed as reconstruction of bone microstructure administered at 30 mg/kg/day, IG continuously for 4 months by micro CT analysis relative to young control group; assay type: functional, organism-based
# Mus musculus [3] = test: Anti osteoporosis in 16 months old C57 mouse assessed as increase in bone mass administered at 30 mg/kg/day, IG continuously for 2 months by micro CT analysis relative to aged control group; assay type: functional, organism-based
# [4] = Toxicity in 16 months old C57 mouse assessed as change in body weight administered at 30 mg/kg/day, IG continuously for 4 months relative to aged control group; assay type: organism-based; details: in vivo, po, 2920 h
# [5] = Toxicity in 16 months old C57 mouse assessed as change in creatinine level administered at 30 mg/kg/day, IG continuously for 4 months; assay type: organism-based; details: in vivo, po, 2920 h
# [6] = Toxicity in 16 months old C57 mouse assessed as change in serum AST level administered at 30 mg/kg/day, IG continuously for 4 months; assay type: organism-based; details: in vivo, po, 2920 h
# [7] = Toxicity in 16 months old C57 mouse assessed as change in total protein level administered at 30 mg/kg/day, IG continuously for 4 months; assay type: organism-based; details: in vivo, po, 2920 h
# [8] = Toxicity in 16 months old C57 mouse assessed as change in triglyceride level administered at 30 mg/kg/day, IG continuously for 4 months; assay type: organism-based; details: in vivo, po, 2920 h
# [9] = Toxicity in 16 months old C57 mouse assessed as change in cholesterol level administered at 30 mg/kg/day, IG for 4 months for every 6 days; assay type: organism-based; details: in vivo, po, 2920 h
# Mus musculus [10] = test: Anti osteoporosis in 2.5 months old SAMP-6 rapid aging mouse model assessed as increase in number of osteoblast per square millimeter of the trabecular bone surface administered at 30 mg/kg/day, IG continuously for 3 months […]; assay type: functional, organism-based
# Mus musculus [11] = test: Anti osteoporosis in 2.5 months old SAMP-6 rapid aging mouse model assessed as upregulation of serum BMP2 administered at 30 mg/kg/day, IG continuously for 3 months […]; assay type: functional, organism-based
# Mus musculus [12] = test: Anti osteoporosis in 2.5 months old SAMP-6 rapid aging mouse model assessed as upregulation of serum BMP2 administered at 30 mg/kg/day, IG in presence of ALN continuously for 3 months […]; assay type: functional, organism-based
# [13] = Toxicity in 2.5 months old SAMP-6 rapid aging mouse model assessed as change in body weight administered at 30 mg/kg/day, IG continuously for 3 months; assay type: organism-based; details: in vivo, po, 2190 h
# [14] = Toxicity in 2.5 months old SAMP-6 rapid aging mouse model assessed as change in triglyceride level administered at 30 mg/kg/day, IG continuously for 3 months; assay type: organism-based; details: in vivo, po, 2190 h
# [15] = Toxicity in 2.5 months old SAMP-6 rapid aging mouse model assessed as change in urea level administered at 30 mg/kg/day, IG continuously for 3 months; assay type: organism-based; details: in vivo, po, 2190 h
# [16] = Toxicity in 2.5 months old SAMP-6 rapid aging mouse model assessed as change in serum ALT level administered at 30 mg/kg/day, IG continuously for 3 months in presence of ALN; assay type: organism-based; details: in vivo, po, 2190 h
# [17] = Toxicity in 2.5 months old SAMP-6 rapid aging mouse model assessed as change in serum AST level administered at 30 mg/kg/day, IG continuously for 3 months in presence of ALN; assay type: organism-based; details: in vivo, po, 2190 h
# [18] = Toxicity in 2.5 months old SAMP-6 rapid aging mouse model assessed as change in ALP level administered at 30 mg/kg/day, IG continuously for 3 months in presence of ALN; assay type: organism-based; details: in vivo, po, 2190 h
# [19] = Toxicity in 2.5 months old SAMP-6 rapid aging mouse model assessed as change in triglyceride level administered at 30 mg/kg/day, IG continuously for 3 months in presence of ALN; assay type: organism-based; details: in vivo, po, 2190 h
# [20] = Toxicity in 2.5 months old SAMP-6 rapid aging mouse model assessed as change in creatinine level administered at 30 mg/kg/day, IG continuously for 3 months in presence of ALN; assay type: organism-based; details: in vivo, po, 2190 h
# Mus musculus [21] = test: Anti osteoporosis in 2.5 months old SAMP-6 rapid aging mouse model assessed as bone mass maintenance administered at 30 mg/kg/day, IG continuously for 3 months; assay type: functional, organism-based
# Mus musculus [22] = test: Anti osteoporosis in 16 months old C57 mouse assessed as osteoblast level in femur administered at 30 mg/kg/day, IG continuously for 4 months by scRNA-seq analysis (reference value: 5.05%); assay type: functional; details: 2920 h
# Mus musculus [23] = test: Anti osteoporosis in 16 months old C57 mouse assessed as monocyte level in femur administered at 30 mg/kg/day, IG continuously for 4 months by scRNA-seq analysis (reference value: 12.2%); assay type: functional; details: 2920 h
# Mus musculus [24] = test: Anti osteoporosis in 16 months old C57 mouse assessed as proliferating granulocyte level in femur administered at 30 mg/kg/day, IG continuously for 4 months by scRNA-seq analysis (reference value: 6.29%); assay type: functional; details: 2920 h
# Mus musculus [25] = test: Anti osteoporosis in 16 months old C57 mouse assessed as GrP level in femur administered at 30 mg/kg/day, IG continuously for 4 months by scRNA-seq analysis (reference value: 12.75%); assay type: functional; details: 2920 h
# Mus musculus [26] = test: Anti osteoporosis in 16 months old C57 mouse assessed as chondroblast level in femur administered at 30 mg/kg/day, IG continuously for 4 months by scRNA-seq analysis (reference value: 2.49%); assay type: functional; details: 2920 h
# Mus musculus [27] = test: Anti osteoporosis in 16 months old C57 mouse assessed as endothelial cell level in femur administered at 30 mg/kg/day, IG continuously for 4 months by scRNA-seq analysis (reference value: 2.34%); assay type: functional; details: 2920 h
# Mus musculus [28] = test: Anti osteoporosis in 16 months old C57 mouse assessed as macrophage level in femur administered at 30 mg/kg/day, IG continuously for 4 months by scRNA-seq analysis (reference value: 1.88%); assay type: functional; details: 2920 h
# Mus musculus [29] = test: Anti osteoporosis in 16 months old C57 mouse assessed as megakaryocyte level in femur administered at 30 mg/kg/day, IG continuously for 4 months by scRNA-seq analysis (reference value: 1%); assay type: functional; details: 2920 h
# Osteoblast [30] = test: Upregulation of transcription factor TAX1BP1 expression in 16 months old C57 mouse osteoblast by scRNA-seq analysis; assay type: functional, cell-based
# Osteoblast [31] = test: Upregulation of transcription factor H1F0 expression in 16 months old C57 mouse osteoblast by scRNA-seq analysis; assay type: functional, cell-based
# Osteoblast [32] = test: Upregulation of transcription factor PSMD12 expression in 16 months old C57 mouse osteoblast by scRNA-seq analysis; assay type: functional, cell-based
# Osteoblast [33] = test: Regulation of osteogenesis in 16 months old C57 mouse osteoblast endoplasmic reticulum assessed as increase in Hspa8 gene by scRNA-seq analysis; assay type: functional, cell-based
# Osteoblast [34] = test: Regulation of osteogenesis in 16 months old C57 mouse osteoblast endoplasmic reticulum assessed as increase in Hsph1 gene by scRNA-seq analysis; assay type: functional, cell-based
smiles,measurement,setting,value
COc1ccc2cc(C(=O)NCCN(C)C)oc2c1.CS(=O)(=O)O,fold change (FC),Mus musculus [1],3
same,Flu intensity,Danio rerio,19181
same,Activity,MC3T3-E1,Active
same,Activity,Mus musculus [2],Active
same,Activity,Mus musculus [3],inactive
same,Activity,[4],Non-Toxic
same,Activity,[5],Non-Toxic
same,Activity,[6],Non-Toxic
same,Activity,[7],Non-Toxic
same,Activity,[8],Non-Toxic
same,Activity,[9],Non-Toxic
same,Activity,Mus musculus [10],Active
same,Activity,Mus musculus [11],Active
same,Activity,Mus musculus [12],Active
same,Activity,[13],Non-Toxic
same,Activity,[14],Non-Toxic
same,Activity,[15],Non-Toxic
same,Activity,[16],Non-Toxic
same,Activity,[17],Non-Toxic
same,Activity,[18],Non-Toxic
same,Activity,[19],Non-Toxic
same,Activity,[20],Non-Toxic
same,Activity,Mus musculus [21],Active
same,Activity,Mus musculus [22],15.03%
same,Activity,Mus musculus [23],4.94%
same,Activity,Mus musculus [24],4.71%
same,Activity,Mus musculus [25],6.51%
same,Activity,Mus musculus [26],3.77%
same,Activity,Mus musculus [27],2.38%
same,Activity,Mus musculus [28],1.33%
same,Activity,Mus musculus [29],0.78%
same,Activity,Osteoblast [30],Active
same,Activity,Osteoblast [31],Active
same,Activity,Osteoblast [32],Active
same,Activity,Osteoblast [33],Active
same,Activity,Osteoblast [34],Active
